Measurements from patent US9770430B2, “Desferrioxamine-metal complexes for the treatment of immune-related disorders” (priority 2009, dated 2017).

Assays:
[1] = test system: high energy diet-induced Type II diabetes; experiment: Sand rat high energy diet Type II diabetes model, glucose tolerance test and cataract formation (Example 6); type: in vivo, sand rat (Psammomis obesus)
Excerpt: Sand rats (Psammomis Obesus) were used as a model for Type 2 diabetes. The sand rats transferred onto high energy diet develop a severe form of Type 2 diabetes, including high blood glucose level, increase in body weight, and cataract development (eye lens opacification).
The sand rats were divided into groups. The animals from the Group I received the standard diet, serving as a control, whereas animals from the other indicated groups received high energy diet, leading to diabetes development. The high-energy diet ed mice were either untreated, or treated with intra-peritoneal injections of 2.5 mg/kg body weight Ga-DFO, Zn-DFO, DFO alone, Zn, Ga or lipoic acid (LA), either twice or three times per week, as indicated, for the duration of the experiment. The blood glucose and body weight of the animals were monitored throughout the experiment.
Forty two sand rats were divided into seven groups, six animals in each. The animals from Group I received the standard diet and used as a control. The animals from the Groups II, III, IV, V, VI and VII received high energy diet, leading to diabetes development, while Groups III, IV and VII were treated with Zn-DFO, Ga-DFO and DFO alone, respectively. The Groups V and VI received Zn and Ga, in their chloride salt form, alone respectively. Administration of the different treatments was as described, and the experiment lasted for 53 days. Glucose tolerance test was performed at the end of experiment. The cataract formation was tested as well.

[2] = pH limit of the complex solution during preparation (loss of biological activities); type: physicochemical; conditions: pH above 6.1; solution reacts with air-containing CO2
ovalbumin-induced asthma = experiment: Ovalbumin-induced asthma, treatment of chronic asthma model (BAL cells, lung histology); type: in vivo, BALB/c mice; conditions: Mean ± SE
Experimental: • Twelve-week-old Balb/c mice were administered 10 μg (100 μl) ovalbumin (OVA) dissolved with 3 mg Al(OH)3 in 0.9% saline intraperitoneally (i.p.) on days 0, 7 and 14, and 10 μg (50 μl) OVA intranasally (i.n.) on days 20, 23, 25, 27, 29, 31, 34, 36, 37, 41, 43 and 45. For intranasal administration, mice were anesthetized with inhaled N-flurane and instilled with OVA i.n. with a micropipette. • Three-week-old BALB/c mice were sensitized (×3) with intra-peritoneal (i/p) injection (100 μl OVA solution, containing 0.3 mg OVA and 6.7 mg Al(OH)3, in 1 ml PBS) on days 0, 7 and 14. On days 14, 15, 17, 21 and 23 the mice were further sensitized with intranasal sprinklings (50 μl, each) of OVA in PBS solution containing 2 mg/ml OVA, as following: mice were anesthetized with inhaled N-flurane and instilled with OVA intra-nasally using a micropipette. Twenty-four hours after the last administration of OVA, the mice were sacrificed. Methacholine Challenge and Collection of Histologic Sections and Biochemical Samples
Either Zn-DFO, Ga-DFO, Zn-DFO and Ga-DFO 1:1 combination (herein metal complexes) or saline were administered as follows: on days −5, −1, 7 and 14, 1 mg/kg body weight metal complexes or saline were administered intraperitoneally (i.p.). On days 0, 6, 8, 13 and 15, 0.3 mg/kg body weight metal complexes or saline were administered i.p. On days 20, 23, 25, 27, 29, 31, 34, 36, 37, 41, 43 and 45, 0.3 mg/kg body weight metal complexes or saline were administered intranasally (i.n.). Twenty-four hours after the last sensitization, mice were anesthetized with urethane and the lungs were lavaged 4 times with 0.5 ml sterile PBS. Animals in the “control” group (non-asthmatic—saline treated, but not sensitized) (n=6) received saline injections and instillations, using the same regime as the asthmatic and treated animals. Animals of the “asthmatic” group (sensitized and saline-treated, rather than complex-treated) (n=6) received saline instead of the respective complex, under the same regime.
For the treatment of chronic asthma model, a similar experimental protocol was followed, with the following modifications: 1 mg/kg body weight metal complexes or saline were administered i.p. on day 0 (instead of days −5 and −1) and a further 0.3 mg/kg complexes or saline were administered on day 1. In this model, the effects of the complexes were investigated further by histological examination of lung sections stained with either haematoxylin-eosine or PAS/AB (periodic acid-Schiff/alcan blue).
To estimate the anti-asthmatic effect of the complexes the following parameters were measured: the concentration of ferritin in the lungs, the presence of inflammatory cells infiltration into the lungs, and the amounts of macrophages, eosinophils, lymphocytes and neutrophils in bronchoalveolar lavages (BALs).

Structure (SMILES): CC(=O)N(O)CCCCCNC(=O)CCC(=O)N([O-])CCCCCNC(=O)CCC(=O)N([O-])CCCCCN.[Zn+2] [Zn-DFO, Zinc-desferrioxamine]
- three hours response to an orally-administered glucose dose, value above the zero (standard diet Group I) ([1]; 200 mg glucose per 100 g body weight, end of 53 day experiment, high energy diet): 20 mg/dL
- Cataract formation ([1]; high energy diet (HE) sand rats, 53 days): 22%
- effect of higher pH on the Zn-DFO solution [2]: marked loss of the biological activities
- Eosinophils in BAL fluid (ovalbumin-induced asthma): 0.3 ± 0.05^# 10^4 cells/ml
- Lymphocytes in BAL fluid (ovalbumin-induced asthma): 0.2 ± 0.05^# 10^4 cells/ml
- Macrophages in BAL fluid (ovalbumin-induced asthma): 3.0 ± 0.2^# 10^4 cells/ml
- Neutrophils in BAL fluid (ovalbumin-induced asthma): 0.2 ± 0.05^# 10^4 cells/ml
- Total WBC in BAL fluid (ovalbumin-induced asthma): 4.0 ± 0.3^# 10^4 cells/ml
